# Results from patent US5171835A, “LHRH antagonists” (The Administrators of the Tulane Educational Fund, priority 1991, dated 1992).
# Read-outs that look alike come from different tables or passages of the source. Square brackets hold non-standard residues; d marks the D form. dPhe(4-Cl) = N[C@H](Cc1ccc(Cl)cc1)C(=O)O; d2Nal = N[C@H](Cc1ccc2ccccc2c1)C(=O)O; dCit = NC(=O)NCCC[C@@H](N)C(=O)O; d3Pal = N[C@H](Cc1cccnc1)C(=O)O
# Experiments:
# LH and FSH levels = experiment: In vivo effect on LH and FSH levels in castrated male rats; set-up: species or system rat; conditions: s.c.; for inhibition of LH levels forty-eight hours after injection: dose of 5 μg; for duration of significant decrease in the LH levels: p<0.01
# Experimental: (d) In vivo effect on LH and FSH levels was measured as described by L. Bokser et al. (Proc. Natl. Acad. Sci. US, accepted for publication.) Castrated male rats weighing 350-410 grams anaesthetized with urethane were injected subcutaneously with Peptide 7 and 8 in doses of 1.25 μg and 5.0 μg. Blood samples were taken from the jugular vein before injection and 1, 2, 3, 4, 6, 24 and 48 hours after the administration of peptides. Control animals were injected only with saline. LH and FSH levels were determined by specific RIAs.
# [1] = system: perfused rat pituitary cell system (LH response to LH-RH); experiment: LH-RH inhibiting activity in superfused rat pituitary cell system; format: cell-based
# Experimental: Immediately after that, a mixture containing the same concentration of peptide and 3 nM LHRH is administered for 3 min. This was followed by four consecutive infusions of 3 nM LHRH for 3 min (1 ml perfusate) at 30 min intervals (30, 60, 90, 120 min). LH content of the 1 ml fractions collected is determined by radioimmunoassay (RIA).
# [2] = system: membrane receptors of human breast cancer cells; experiment: Receptor binding, human breast cancer cell membranes (125I-[D-Trp6]LHRH as labelled ligand); conditions: 125I-[D-Trp]6 LHRH labelled ligand; for Affinity Constant Ka 1: NB = no binding
# Experimental: Affinity of peptides to rat pituitary and human breast cancer cell membranes is determined by using labelled LHRH and [D-Trp^6 ]LHRH. The assay is carried out similarly to that described by T. Kadar et al., Proc. Natl. Acad. Sci. USA, 85, 890-894 (1988) and M. Fekete et al., Endocrinology, 124, 946-955 (1989).
# [3] = system: Dunning R3327 prostate cancer; experiment: In vivo antitumor effect, Dunning R3327 prostate cancer in rats; set-up: species or system rat; conditions: for Size of tumor, treated group: 25 μg/day, ± SD
# Experimental: Inhibition of growth of cancerous tumors in rats with compounds of Formula I was tested as described by Szende et al. (J. Natl. Cancer Inst., 82, 513-517, 1990; Szende et al., Cancer Research), 50, 3716-3721, 1990) by A. V. Schally and T. Redding (Proc. Natl. Acad. Sci. US, 84, 7279-7282, 1987), and by E. Korkut et al. (Proc. Natl. Acad. Sci. US, accepted for publication). Peptide 8 was dissolved in 45% aqueous propylene-glycol and was administered at a dose of 25 μg/day from an ALZET minipump to male rats bearing the androgen-dependent well-differentiated R3327 Dunning rat prostate adenocarcinoma. Tumors were measured weekly with microcalipers and tumor volumes were calculated. Duration of the treatment was 8 weeks, changing the minipumps at the end of the 4th week.
# LHRH = conditions: prior art; cited from earlier work
# [4] = cited from earlier work
# [5] = antagonist to LH-RH ratio 1:1, 0 min
# [6] = antagonist to LH-RH ratio 1:1, 30 min
# [7] = antagonist to LH-RH ratio 1:1, 60 min
# [8] = antagonist to LH-RH ratio 1:1, 90 min
# [9] = antagonist to LH-RH ratio 3:1, 0 min
# [10] = antagonist to LH-RH ratio 3:1, 30 min
# [11] = antagonist to LH-RH ratio 3:1, 60 min
# [12] = antagonist to LH-RH ratio 3:1, 90 min
# [13] = rats bearing Dunning R3327H prostate cancer
Substance,"inhibition of LH levels forty-eight hours after injection (LH and FSH levels; 48 hours, p<0.05)",duration of significant decrease in the LH levels (LH and FSH levels),"% inhibition of LH response [1, 5] [%]","% inhibition of LH response [1, 6] [%]","% inhibition of LH response [1, 7] [%]","% inhibition of LH response [1, 8] [%]","% inhibition of LH response [1, 9] [%]","% inhibition of LH response [1, 10] [%]","% inhibition of LH response [1, 11] [%]","% inhibition of LH response [1, 12] [%]",Affinity Constant Ka 2 [2] [µM⁻¹],Affinity Constant Ka 1 [2] [nM⁻¹],LHRH antagonist / ovulation inhibition potency (LHRH),further results
Ac-D-Nal(2)-D-Phe(4Cl)-D-Pal(3)-Ser-Tyr-D-Lys[A2 pr(Ac)2 ]-Leu-Arg-Pro-D-Ala-NH2 [Peptide 8],significant inhibition,more than 24 hours,64,39,27,22,99,66,47,37,6.16,1.57,,"activity on LH levels forty-eight hours after injection (LH and FSH levels; dose of 1.25 μg, 48 hours, p<0.05): active; Size of tumor, treated group ([3]; week 0): 4001 ± 1617 mm^3; Size of tumor, treated group ([3]; week 1): 5459 ± 1863 mm^3; Size of tumor, treated group ([3]; week 2): 5892 ± 1938 mm^3; Size of tumor, treated group ([3]; week 3): 6357 ± 2327 mm^3; Size of tumor, treated group ([3]; week 4, p<0.05): 6237 ± 2974 mm^3; Size of tumor, treated group ([3]; week 5, p<0.05): 7447 ± 3481 mm^3; Size of tumor, treated group ([3]; week 6, p<0.05): 8038 ± 4374 mm^3; Size of tumor, treated group ([3]; week 7, p<0.01): 8129 ± 3525 mm^3; Tumor doubling time ([3]; Dunning R3327H prostate cancer, rats, control group 12 days): 42 days; body weight during the treatment [3, 13]: did not change; weight of testis, seminal vesicles and ventral prostate [3, 13]: greatly reduced"
Ac-D-Nal(2)-D-Phe(4Cl)-D-Pal(3)-Ser-Tyr-D-Lys[A2 pr(Car)2 ]-Leu-Arg-Pro-D-Ala-NH2 [Peptide 7],significant inhibition,more than 24 hours,57,51,45,41,96,78,70,58,5.72,6.27,,
Ac-[d2Nal][dPhe(4-Cl)][d3Pal]SY[dCit]LRP[dA]-NH2,,,,,,,,,,,,,high inhibitory effect,side effects ([4]; prior art): no edematogenic and anaphylactoid side effects
"[Ac-D-Nal(2)^1,D-Phe(4Cl)^2,D-Trp^3,D-hArg(Et)2^6,D-Ala^10 ] [Detirelix]",,,,,,,,,,,,,powerful antagonist,side effects ([4]; in vivo): hypotensive and bradycardic side effect
